Results from patent publication US20240360151A1 (SANOFI, priority 2023, published 2024).

Target: T1, NLRP3 inflammasome (Homo sapiens, UniProt Q96P20)
T1 construct: endogenous in cells; host or cells: THP-1 monocytic cells
Assay: IL-1β secretion assay (NLRP3 IC50) in LPS-primed, nigericin-activated THP-1 cells, HTRF
Assay type: cell-based
Settings: monocytic THP-1 cells; LPS 10 ng/mL 3 h priming, then compound + nigericin 10 μM 2 h; relative IC50, 10 concentrations, geometric mean
Experimental: Monocytic THP-1 cells were maintained in RPMI 1640 media (Gibco 21875)+10% FBS, (Gibco 10500)+1% penicillin/streptomycin (Gibco 15140-122). Cells were then plated at 40,000 cells per well in 384-well cell culture plates (CoRNning 3542) and maintained with RPMI1640 (Gibco 11835)+5% FBS (Gibco 10500). Activation of the NLRP3 inflammasome requires both an NF-kB-dependent priming step and the addition of a NLRP3 activator. The priming step was induced by LPS (10 ng/mL, InvivoGen ref tlrl-3pelps) for 3 h at 37° C., then compound, in a 1:3 serial dilution series in DMSO (final concentration DMSO 0.1%), and the activator nigericin (Sigma Aldrich, ref: SML1779) 10 μM (final concentration) were added to the cells and co-incubated for 2 hours. 16 μL supernatant was removed, and IL-1β levels were monitored using an HTRF assay (Human IL1b Kits HTRF Cisbio ref: 62HILBPEH) according to manufacturers' instructions.
Data were expressed as percentage of inhibition (I %) as compared to a maximum signal control containing no small molecule (I %=0%) according to the formula: 1%=(1−((Sample−Min))/((Max−Min)))×100, where: • Sample: Signal obtained in the presence of each compound tested, • Max: Maximum signal in the absence of compound added, • Min: Minimum or background signal obtained in the absence of activation signal.
Relative IC50 (IC50 rel) were obtained from a dose response curve with 10 concentrations. Final IC50 rels are expressed as the geometric mean.
Relative IC50 values were estimated with Biost@t-SPEED v2.4 internal software based on SAS system using the 4-parameter logistic model according to Ratkovsky and Reedy (D. A. Ratkovsky, T. J. Reedy, Choosing near-linear parameters in the four parameters logistic model radioligands and related assays. Biometrics, 42 (1986), 575-582): Y=A+C/((1+exp(−B*(log(X)−M)))), where: • A: Lower asymptote (BOTTOM), • A+C: Upper asymptote (TOP), • M: the logarithm of the concentration estimated at the inflexion point (the logarithm of the relative IC50), • B: Slope at the inflexion point of the curve.

T1 sequence (Q96P20 whole entry): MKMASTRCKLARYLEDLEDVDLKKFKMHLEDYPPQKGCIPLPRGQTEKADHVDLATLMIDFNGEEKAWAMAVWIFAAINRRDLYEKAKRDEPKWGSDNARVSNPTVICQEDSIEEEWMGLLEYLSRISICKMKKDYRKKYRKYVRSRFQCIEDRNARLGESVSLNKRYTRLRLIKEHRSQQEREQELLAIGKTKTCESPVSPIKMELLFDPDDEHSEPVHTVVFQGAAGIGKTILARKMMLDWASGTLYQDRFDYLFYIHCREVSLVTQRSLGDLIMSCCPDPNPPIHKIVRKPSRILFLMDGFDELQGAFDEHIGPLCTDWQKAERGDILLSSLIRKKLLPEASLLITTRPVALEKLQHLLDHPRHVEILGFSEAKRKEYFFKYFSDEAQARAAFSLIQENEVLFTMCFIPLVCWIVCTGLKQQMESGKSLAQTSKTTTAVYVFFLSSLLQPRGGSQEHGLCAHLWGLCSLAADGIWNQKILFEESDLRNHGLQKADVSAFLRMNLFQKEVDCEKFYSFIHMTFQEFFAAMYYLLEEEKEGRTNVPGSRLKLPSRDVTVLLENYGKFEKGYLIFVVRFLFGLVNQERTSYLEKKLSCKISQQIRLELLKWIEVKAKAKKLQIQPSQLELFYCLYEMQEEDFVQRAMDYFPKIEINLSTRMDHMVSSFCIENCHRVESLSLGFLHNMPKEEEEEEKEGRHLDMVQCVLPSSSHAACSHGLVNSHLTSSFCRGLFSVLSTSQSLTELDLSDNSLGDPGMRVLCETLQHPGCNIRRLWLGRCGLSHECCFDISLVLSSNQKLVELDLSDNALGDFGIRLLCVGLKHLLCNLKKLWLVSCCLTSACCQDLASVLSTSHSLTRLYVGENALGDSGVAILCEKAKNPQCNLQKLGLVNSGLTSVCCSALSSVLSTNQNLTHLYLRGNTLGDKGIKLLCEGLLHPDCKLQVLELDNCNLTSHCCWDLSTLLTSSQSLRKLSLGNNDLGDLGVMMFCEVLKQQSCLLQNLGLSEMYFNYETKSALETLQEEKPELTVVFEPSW

Row | IC50 | SMILES
1 | 1.25 µM | Cc1cc(C(F)(F)F)cc(O)c1-c1ccc(N2CCOC(C(C)(C)O)C2)nn1 (single isomer, unassigned) [Example 52, 2-[6-[2-(1-hydroxy-1-methyl-ethyl)morpholin-4-yl]pyridazin-3-yl]-3-methyl-5-(trifluoromethyl)phenol]
2 | 2.2 µM | Cc1cc(C)c(-c2ccc(N3CC4(CCC(O)C4)C3)nn2)c(O)c1 (single isomer, unassigned) [Example 95, 2-[6-(2-hydroxy-4,6-dimethyl-phenyl)pyridazin-3-yl]-2-azaspiro[3.4]octan-6-ol]
3 | 0.298 µM | Cc1cc(C)c(-c2ccc(N3CCOC([C@H](C)O)C3)nn2)c(O)c1 (single isomer, unassigned) [Example 98]
4 | 0.752 µM | Cc1cc(C)c(-c2ccc(N3CCOC([C@H](C)O)C3)nn2)c(O)c1 (single isomer, unassigned) [Example 99]
5 | 0.545 µM | Cc1cc(C)c(-c2ccc(N3CCO[C@@H](C(C)O)C3)nn2)c(O)c1 (single isomer, unassigned) [Example 108]
6 | 0.997 µM | Cc1cc(C)c(-c2ccc(N3CCO[C@H](C4(N)CC4)C3)nn2)c(O)c1 (single isomer, unassigned) [Example 135]
7 | 3.03 µM | Cc1cc(C)c(-c2ccc(N3CCO[C@@H](C4(N)CC4)C3)nn2)c(O)c1 (single isomer, unassigned) [Example 136]
8 | 1.79 µM | Cc1cc(C)c(-c2ccc(N3CCO[C@H](CC(=O)N(C)C)C3)nn2)c(O)c1 (single isomer, unassigned) [Example 150]
9 | 1.17 µM | Cc1cc(C)c(-c2ccc(N3CCO[C@@H](CC(=O)N(C)C)C3)nn2)c(O)c1 (single isomer, unassigned) [Example 151]
10 | 1.06 µM | CCC(=O)C1CN(c2ccc(-c3c(C)cc(C)cc3O)nn2)CCO1 (single isomer, unassigned) [Example 156]
11 | 0.69 µM | Cc1cc(C(F)(F)F)cc(O)c1-c1ccc(N2CC[C@@H]3CN(C)C[C@@H]32)nn1 (single isomer, unassigned) [Example 271]
12 | 0.135 µM | Cc1cc(C(F)(F)F)cc(O)c1-c1ccc(N2CCO[C@@H](CF)C2)nn1 (single isomer, unassigned) [Example 283]
13 | 0.115 µM | Cc1cc(C(F)(F)F)cc(O)c1-c1ccc(N2CCC[C@H](CO)C2=O)nn1 (single isomer, unassigned) [Example 287]
14 | 0.143 µM | Cc1cc(C(F)(F)F)cc(O)c1-c1ccc(N2CCC[C@@H](CO)C2=O)nn1 (single isomer, unassigned) [Example 288]
15 | 0.868 µM | Cc1cc(C(F)(F)F)cc(O)c1-c1ccc(N2CCO[C@@H]3CCN(C)C[C@H]32)nn1 (single isomer, unassigned) [Example 301]
16 | 0.142 µM | CC(=O)N1CC[C@@H]2OCCN(c3ccc(-c4c(C)cc(Cl)cc4O)nn3)[C@@H]2C1 (single isomer, unassigned) [Example 304]
17 | 0.41 µM | Cc1cc(Cl)cc(O)c1-c1ccc(N2CCO[C@H]3CCN(C)C[C@H]32)nn1 (single isomer, unassigned) [Example 307]
18 | 0.275 µM | Cc1cc(C(F)(F)F)cc(O)c1-c1ccc(N2CC[C@H](CO)C2=O)nn1 (single isomer, unassigned) [Example 325]
19 | 0.198 µM | Cc1cc(C(F)(F)F)cc(O)c1-c1ccc(N2CC[C@@H](CO)C2=O)nn1 (single isomer, unassigned) [Example 326]
20 | 0.292 µM | Cc1cc(C(F)(F)F)cc(O)c1-c1ccc(N2CCO[C@H](CC#N)C2)nn1 (single isomer, unassigned) [Example 327]
21 | 0.219 µM | Cc1cc(C(F)(F)F)cc(O)c1-c1ccc(N2CCO[C@@H](CC#N)C2)nn1 (single isomer, unassigned) [Example 328]
22 | 0.711 µM | Cc1cc(C)c(-c2ccc(N3CC(=O)N[C@@H](CO)C3)nn2)c(O)c1 (single isomer, unassigned) [Example 329]
23 | 0.987 µM | Cc1cc(C)c(-c2ccc(N3CC(=O)N[C@H](CO)C3)nn2)c(O)c1 (single isomer, unassigned) [Example 330]
24 | 1.08 µM | CNCC[C@@H]1CN(c2ccc(-c3c(C)cc(C(F)(F)F)cc3O)nn2)CCO1 (single isomer, unassigned) [Example 331]

Row | IC50 | SMILES
25 | 0.396 µM | CNCC[C@H]1CN(c2ccc(-c3c(C)cc(C(F)(F)F)cc3O)nn2)CCO1 (single isomer, unassigned) [Example 332]
26 | 0.46 µM | Cc1cc(C(F)(F)F)cc(O)c1-c1ccc(N2CCO[C@H]3CN(C)C[C@H]32)nn1 (single isomer, unassigned) [Example 333]
27 | 0.073 µM | Cc1cc(C(F)(F)F)cc(O)c1-c1ccc(N2CCO[C@@H]3CN(C)C[C@@H]32)nn1 (single isomer, unassigned) [Example 334]
28 | 1.16 µM | CC(=O)N1CCC2OCCN(c3ccc(-c4c(C)cc(C(F)(F)F)cc4O)nn3)C2C1 (single isomer, unassigned) [Example 336]
29 | 0.199 µM | CC(=O)N1C[C@@H]2OCCN(c3ccc(-c4c(C)cc(C(F)(F)F)cc4O)nn3)[C@@H]2C1 (single isomer, unassigned) [Example 348]
30 | 0.953 µM | CC(=O)N1CC[C@@H]2OCCN(c3ccc(-c4c(C)cc(C(F)(F)F)cc4O)nn3)[C@H]2C1 (single isomer, unassigned) [Example 349]
31 | 0.375 µM | CC(=O)N1C[C@H]2OCCN(c3ccc(-c4c(C)cc(C(F)(F)F)cc4O)nn3)[C@H]2C1 (single isomer, unassigned) [Example 352]
32 | 1.01 µM | Cc1cc(C)c(-c2ccc(N3CC[C@H]4CCN(C)C[C@H]43)nn2)c(O)c1 (single isomer, unassigned) [Example 383]
33 | 0.461 µM | Cc1cc(C(F)(F)F)cc(O)c1-c1ccc(N2CC[C@H]3CCNC[C@H]32)nn1 (single isomer, unassigned) [Example 393]
34 | 0.5 µM | CC(=O)N1CC[C@H]2CCN(c3ccc(-c4c(C)cc(C)cc4O)nn3)[C@H]2C1 (single isomer, unassigned) [Example 413]
35 | 0.699 µM | CC(=O)N1CC[C@@H]2CCN(c3ccc(-c4c(C)cc(C)cc4O)nn3)[C@@H]2C1 (single isomer, unassigned) [Example 414]
36 | 0.127 µM | Cc1cc(C(F)(F)F)cc(O)c1-c1ccc(N2CCOC(CO)C2=O)nn1 (single isomer, unassigned) [Example 419]
37 | 0.601 µM | Cc1cc(C(F)(F)F)cc(O)c1-c1ccc(N2CCOC(CO)C2=O)nn1 (single isomer, unassigned) [Example 420]
38 | 1.14 µM | CCc1cccc(O)c1-c1ccc(N2CC[C@@H]3CCN(C)C[C@@H]32)nn1 (single isomer, unassigned) [Example 422]
39 | 0.952 µM | CN1CC[C@@H]2CCN(c3ccc(-c4c(O)cccc4C(F)(F)F)nn3)[C@@H]2C1 (single isomer, unassigned) [Example 426]
40 | 0.1 µM | Cc1cc(C)c(-c2ccc(N3CCO[C@@H]4C[C@@H](O)C[C@@H]43)nn2)c(O)c1 (single isomer, unassigned) [Example 466]
41 | 0.014 µM | Cc1cc(C)c(-c2ccc(N3CCO[C@H]4C[C@H](O)C[C@H]43)nn2)c(O)c1 (single isomer, unassigned) [Example 467]
42 | 0.544 µM | Cc1cc(N2CC[C@H]3CCN(C)C[C@H]32)nnc1-c1ccc(Cl)cc1O (single isomer, unassigned) [Example 468]
43 | 0.001 µM | Cc1cc(N2CC[C@H]3CCN(C)C[C@H]32)nnc1-c1ccc(Cl)cc1O (single isomer, unassigned) [Example 469]
44 | 0.005 µM | CCN1CC[C@@H]2CCN(c3ccc(-c4c(O)cccc4C(F)(F)F)nn3)[C@@H]2C1 (single isomer, unassigned) [Example 473]
45 | < 0.0003 µM | CCN1CC[C@@H]2CCN(c3cc(C)c(-c4ccc(C)cc4O)nn3)[C@@H]2C1 (single isomer, unassigned) [Example 474]
46 | 0.093 µM | CCN1CC[C@H]2CCN(c3cc(C)c(-c4ccc(C)cc4O)nn3)[C@H]2C1 (single isomer, unassigned) [Example 475]
47 | 0.209 µM | CCc1cc(C)cc(O)c1-c1ccc(N2CC[C@H]3CCN(C)C[C@H]32)nn1 (single isomer, unassigned) [Example 476]

Row | SMILES | IC50
48 | Cc1cccc(O)c1-c1ccc(N2CC[C@@H]3CCN(C)C[C@@H]32)nn1 (single isomer, unassigned) [Example 415] | 4.66 µM
